{"source": "paper doi:10.1101/2023.08.31.555663", "about": "“Computational exploration of the global microbiome for antibiotic discovery” (bioRxiv, 2023)", "key": {"A. baumannii ATCC 19606": {"system": "A. baumannii ATCC 19606", "assay": "Skin abscess infection mouse model", "format": "in vivo", "conditions": "CD-1 mice, n=3", "experimental": "Figure 7. Anti-infective activity of AMPs in pre-clinical animal model. (A) Schematic of the skin abscess mouse model used to assess the anti-infective activity of the peptides against A. baumannii cells. (B) Peptides were tested at their MIC in a single dose one hour after the establishment of the infection. Each group consisted of three mice n=3 and the bacterial loads used to infect each mouse derived from a different inoculum. (C) To rule out toxic effects of the peptides, mouse weight was monitored throughout the experiment. Statistical significance in (B) was determined using one-way ANOVA where all groups were compared to the untreated control group; P-values are shown for each of the groups. Features on the violin plots represent median and upper and lower quartiles. Data in (C) are the mean ± the standard deviation. Figure created in BioRender.com. […]\nTo assess the anti-infective efficacy of the peptides against A. baumannii ATCC 19606 in a skin abscess infection mouse model, the bacteria were cultured in tryptic soy broth (TSB) medium until an OD600 of 0.5 was reached. […] The animals were euthanized two- and four-days post-infection, and the infected area was extracted and homogenized for 20 min using a bead beater (25 Hz) and 10-fold serially diluted for CFU quantification on MacConkey agar plates for easy differentiation of A. baumannii colonies. […]"}, "[1]": {"system": "Acinetobacter baumannii ATCC 19606", "conditions": "broth microdilution, LB broth, 24 h at 37 °C, two-fold dilutions 64 to 1 μmol·L^−1, absorbance 600 nm, mode of three independent replicates", "quoted_text": "Amino acid composition, structure, antimicrobial activity, and mechanism of action of c_AMPs. […] (AC) Activity of c_AMPs assessed against ESKAPEE pathogens and human gut commensal strains. Briefly, 10^6 CFU·mL^−1 was exposed to c_AMPs two-fold serially diluted ranging from 64 to 1 μmol·L^−1 in 96-wells plates and incubated at 37 °C for one day. After the exposure period, the absorbance of each well was measured at 600 nm. Untreated solutions were used as controls and minimal concentration values for complete inhibition were presented as a heat map of antimicrobial activities (μmol·L^−1) against 11 pathogenic and eight human gut commensal bacterial strains."}}, "note": "Where a SMILES comes first, the peptide text is derived from it. Bridges are numbered along the chain shown (N, C = ends). [ ]: non-standard residue; d: D form. The star is where a group is joined. X1 = CC[C@H](C)CCCCC(=O)*; Dab = NCC[C@H](N)C(=O)O", "data": [{"smiles": "CC[C@H](C)CCCCC(=O)N[C@@H](CCN)C(=O)N[C@H](C(=O)N[C@@H](CCN)C(=O)N[C@H]1CCNC(=O)[C@H]([C@@H](C)O)NC(=O)[C@H](CCN)NC(=O)[C@H](CCN)NC(=O)[C@H](CC(C)C)NC(=O)[C@@H](Cc2ccccc2)NC(=O)[C@H](CCN)NC1=O)[C@@H](C)O", "note": "[polymyxin B] (X1-[Dab]T[Dab][Dab][Dab][dF]L[Dab][Dab]T; lactam 4-C (inferred); N-terminus assumed)", "values": [{"measurement": "Kind of anti-infective activity against A. baumannii in skin abscess", "setting": "A. baumannii ATCC 19606; single dose at MIC on the infected area, two days post-infection", "result": "bactericidal activity"}, {"measurement": "Reduction of CFU counts compared to the untreated control", "setting": "A. baumannii ATCC 19606; skin abscess, A. baumannii, single dose at MIC, four days post-infection", "result": "1–2 orders of magnitude"}, {"measurement": "Minimal Inhibitory Concentration, A. baumannii ATCC 19606", "setting": "[1]", "result": 0.25, "unit": "µmol/L"}]}]}
